Data published in ChEMBL document CHEMBL4118122, “Identification and biological evaluation of thiazole-based inverse agonists of RORγt” (Bioorg Med Chem Lett, 2018).
Converted amounts (≈) assume the structure as drawn.

Experiments:
PXR (NR1I2) [1] = biological target: T1, PXR (NR1I2) (Homo sapiens, UniProt O75469); experiment: […] at PXR LBD (unknown origin) expressed in HEK293 cells […] at 10 uM after 16 hrs by luciferase reporter gene assay relative to rifampicin; type: ADME, cell-based; conditions: HEK293 cells expressing PXR LBD, read-out: Efficacy
T1 sequence (O75469 whole entry): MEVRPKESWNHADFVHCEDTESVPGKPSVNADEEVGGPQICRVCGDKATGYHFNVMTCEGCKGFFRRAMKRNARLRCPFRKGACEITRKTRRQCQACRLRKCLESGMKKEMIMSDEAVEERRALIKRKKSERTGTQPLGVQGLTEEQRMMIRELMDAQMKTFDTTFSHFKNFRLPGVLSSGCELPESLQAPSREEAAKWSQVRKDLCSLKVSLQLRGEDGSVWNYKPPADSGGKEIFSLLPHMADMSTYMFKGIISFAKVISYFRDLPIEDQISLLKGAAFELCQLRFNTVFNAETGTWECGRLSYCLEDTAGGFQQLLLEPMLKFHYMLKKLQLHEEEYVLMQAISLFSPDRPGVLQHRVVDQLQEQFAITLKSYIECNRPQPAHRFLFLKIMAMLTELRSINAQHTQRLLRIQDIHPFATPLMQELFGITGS

PXR (NR1I2) [2] = biological target: T1, PXR (NR1I2); experiment: […] at PXR LBD (unknown origin) expressed in HEK293 cells […] at 1 uM after 16 hrs by luciferase reporter gene assay relative to rifampicin; type: ADME, cell-based; conditions: HEK293 cells expressing PXR LBD, read-out: Efficacy
PXR (NR1I2) [3] = biological target: T1, PXR (NR1I2); experiment: […] at PXR LBD (unknown origin) expressed in HEK293 cells […] at 5 uM after 16 hrs by luciferase reporter gene assay relative to rifampicin; type: ADME, cell-based; conditions: HEK293 cells expressing PXR LBD, read-out: Efficacy
Cytochrome P450 2C19 = Cytochrome P450 2C19 (Homo sapiens, UniProt P33261); experiment: Inhibition of CYP2C19 (unknown origin); type: ADME
Cytochrome P450 2C9 = Cytochrome P450 2C9 (Homo sapiens, UniProt P11712); experiment: Inhibition of CYP2C9 (unknown origin); type: ADME
Cytochrome P450 3A4 = Cytochrome P450 3A4 (Homo sapiens, UniProt P08684); experiment: Inhibition of CYP3A4 (unknown origin); type: ADME
[4] = Thermodynamic solubility of the compound in 30 mM phosphate buffer at 10 mM at pH 7 after 2 to 5 days by UV-HPLC analysis; type: physicochemical; conditions: read-out: Therm_solubility
Cytochrome P450 1A2 = biological target: T2, Cytochrome P450 1A2 (Homo sapiens, UniProt P05177); experiment: Inhibition of CYP1A2 (unknown origin); type: ADME
T2 sequence (P05177 whole entry): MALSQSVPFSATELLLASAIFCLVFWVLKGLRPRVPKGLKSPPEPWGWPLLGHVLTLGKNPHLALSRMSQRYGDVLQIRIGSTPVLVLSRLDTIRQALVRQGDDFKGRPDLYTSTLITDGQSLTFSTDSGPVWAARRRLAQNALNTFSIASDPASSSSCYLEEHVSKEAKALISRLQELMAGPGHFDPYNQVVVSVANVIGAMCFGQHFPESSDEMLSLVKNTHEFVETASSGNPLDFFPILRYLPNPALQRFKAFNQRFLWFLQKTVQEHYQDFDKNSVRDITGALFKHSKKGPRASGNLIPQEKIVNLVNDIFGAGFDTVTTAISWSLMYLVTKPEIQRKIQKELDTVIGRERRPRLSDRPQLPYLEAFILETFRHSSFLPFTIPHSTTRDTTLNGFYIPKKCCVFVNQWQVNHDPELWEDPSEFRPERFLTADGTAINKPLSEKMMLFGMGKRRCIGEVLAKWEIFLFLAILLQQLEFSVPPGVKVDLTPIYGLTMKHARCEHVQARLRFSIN

Cytochrome P450 2D6 = Cytochrome P450 2D6 (Homo sapiens, UniProt P10635); experiment: Inhibition of CYP2D6 (unknown origin); type: ADME
[5] = Half life in human microsomes; type: ADME, Microsome
Cytochrome P450 2C8 = biological target: T3, Cytochrome P450 2C8 (Homo sapiens, UniProt P10632); experiment: Inhibition of CYP2C8 (unknown origin); type: ADME
T3 sequence (P10632 whole entry): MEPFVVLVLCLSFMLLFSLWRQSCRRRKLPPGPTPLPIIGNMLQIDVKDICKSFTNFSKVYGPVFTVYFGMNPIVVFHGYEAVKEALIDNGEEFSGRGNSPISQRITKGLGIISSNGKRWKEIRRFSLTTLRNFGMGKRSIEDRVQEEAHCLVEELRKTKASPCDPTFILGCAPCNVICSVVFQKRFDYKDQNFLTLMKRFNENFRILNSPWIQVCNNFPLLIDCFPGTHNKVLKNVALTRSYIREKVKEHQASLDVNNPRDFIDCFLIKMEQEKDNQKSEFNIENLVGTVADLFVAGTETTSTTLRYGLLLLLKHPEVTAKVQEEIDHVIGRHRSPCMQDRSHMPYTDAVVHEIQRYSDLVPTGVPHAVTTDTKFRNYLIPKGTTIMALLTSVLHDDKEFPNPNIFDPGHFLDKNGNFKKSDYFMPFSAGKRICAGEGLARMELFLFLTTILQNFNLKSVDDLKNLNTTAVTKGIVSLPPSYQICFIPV

[6] = Half life in rat microsomes; type: ADME, Microsome

Sequence of Cytochrome P450 2D6 (P10635 whole entry): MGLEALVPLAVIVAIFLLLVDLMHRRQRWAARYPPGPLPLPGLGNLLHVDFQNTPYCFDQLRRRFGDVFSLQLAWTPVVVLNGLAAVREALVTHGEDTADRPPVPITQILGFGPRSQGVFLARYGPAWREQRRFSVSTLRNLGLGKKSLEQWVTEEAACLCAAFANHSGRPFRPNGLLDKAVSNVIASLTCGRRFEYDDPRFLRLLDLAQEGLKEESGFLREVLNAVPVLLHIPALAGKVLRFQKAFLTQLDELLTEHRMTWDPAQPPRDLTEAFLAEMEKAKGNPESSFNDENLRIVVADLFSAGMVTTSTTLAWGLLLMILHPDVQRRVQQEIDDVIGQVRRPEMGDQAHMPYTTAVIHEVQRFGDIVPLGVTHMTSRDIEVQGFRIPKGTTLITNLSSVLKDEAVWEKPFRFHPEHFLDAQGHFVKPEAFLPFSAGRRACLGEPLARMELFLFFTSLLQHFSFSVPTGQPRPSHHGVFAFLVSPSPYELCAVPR
Sequence of Cytochrome P450 3A4 (P08684 whole entry): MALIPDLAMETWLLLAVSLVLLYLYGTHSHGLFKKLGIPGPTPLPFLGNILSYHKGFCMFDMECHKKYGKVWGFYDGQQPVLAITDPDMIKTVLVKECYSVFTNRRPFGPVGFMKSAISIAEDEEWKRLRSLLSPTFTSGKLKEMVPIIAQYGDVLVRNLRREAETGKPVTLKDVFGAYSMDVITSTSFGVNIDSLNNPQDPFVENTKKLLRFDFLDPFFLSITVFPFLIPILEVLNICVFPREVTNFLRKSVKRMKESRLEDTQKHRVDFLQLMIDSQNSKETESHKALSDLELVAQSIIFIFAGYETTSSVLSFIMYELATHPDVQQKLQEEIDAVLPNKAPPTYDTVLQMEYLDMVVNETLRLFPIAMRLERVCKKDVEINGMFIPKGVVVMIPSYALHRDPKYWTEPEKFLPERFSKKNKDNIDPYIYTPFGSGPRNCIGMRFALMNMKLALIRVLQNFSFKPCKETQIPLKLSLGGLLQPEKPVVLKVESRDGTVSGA
Sequence of Cytochrome P450 2C19 (P33261 whole entry): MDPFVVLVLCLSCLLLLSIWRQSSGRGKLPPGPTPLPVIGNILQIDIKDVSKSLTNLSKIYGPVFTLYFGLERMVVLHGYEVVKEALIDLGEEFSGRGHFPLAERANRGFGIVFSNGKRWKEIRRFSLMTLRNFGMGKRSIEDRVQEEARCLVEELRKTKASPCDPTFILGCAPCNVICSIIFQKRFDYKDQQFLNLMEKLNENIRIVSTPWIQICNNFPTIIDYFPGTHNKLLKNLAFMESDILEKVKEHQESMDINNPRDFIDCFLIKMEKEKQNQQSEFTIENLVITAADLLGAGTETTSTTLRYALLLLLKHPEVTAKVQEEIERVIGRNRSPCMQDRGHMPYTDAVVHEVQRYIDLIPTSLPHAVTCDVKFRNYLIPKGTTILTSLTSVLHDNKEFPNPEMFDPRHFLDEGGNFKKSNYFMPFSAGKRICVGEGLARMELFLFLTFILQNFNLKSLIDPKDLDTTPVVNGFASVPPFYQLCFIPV
Sequence of Cytochrome P450 2C9 (P11712 whole entry): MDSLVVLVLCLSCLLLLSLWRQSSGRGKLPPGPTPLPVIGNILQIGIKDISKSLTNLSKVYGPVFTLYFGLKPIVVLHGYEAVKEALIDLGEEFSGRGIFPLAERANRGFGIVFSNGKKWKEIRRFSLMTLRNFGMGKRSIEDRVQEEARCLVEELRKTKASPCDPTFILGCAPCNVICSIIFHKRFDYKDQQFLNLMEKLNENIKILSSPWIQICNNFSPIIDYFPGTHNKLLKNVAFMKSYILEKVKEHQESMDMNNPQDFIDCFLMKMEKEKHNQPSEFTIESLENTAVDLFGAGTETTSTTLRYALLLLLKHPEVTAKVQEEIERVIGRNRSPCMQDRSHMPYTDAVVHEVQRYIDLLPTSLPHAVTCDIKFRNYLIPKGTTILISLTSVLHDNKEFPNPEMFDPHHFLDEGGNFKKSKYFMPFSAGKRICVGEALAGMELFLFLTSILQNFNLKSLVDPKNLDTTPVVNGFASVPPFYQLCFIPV

Emax at 16 h, 10 µM (PXR (NR1I2) [1]) [%]	Emax at 16 h, 1 µM (PXR (NR1I2) [2]) [%]	Emax at 16 h, 5 µM (PXR (NR1I2) [3]) [%]	SMILES	other results
116	69	–	CC(C)(C)NS(=O)(=O)c1ccc(-c2sc(C(=O)NC34CC(C(=O)O)(C3)C4)nc2CC2CCCCC2)c2ccccc12	–
–	80	134	C[C@H](NS(=O)(=O)c1ccc(-c2sc(C(=O)NCC(C)(C)O)nc2Cc2ccc(F)cc2)c(Cl)c1Cl)C(F)(F)F	–
206	181	–	CC(C)(C)NS(=O)(=O)c1ccc(-c2sc(C(=O)NC3CCOCC3)nc2CC2CCCCC2)c2ccccc12	–
128	116	–	CC(C)(C)NS(=O)(=O)c1ccc(-c2sc(C(=O)N3CC4(CCS(=O)(=O)CC4)C3)nc2CC2CCCCC2)c2ccccc12	–
94	26	–	C[C@H](NC(=O)c1cc(-c2sc(C(=O)N[C@H]3C[C@H](C(=O)O)C3)nc2CC2CCCCC2)cc(C2(C)CC2)c1)C(F)(F)F	INH (Cytochrome P450 2C19): > 10 µM; INH (Cytochrome P450 2C9): > 10 µM; INH (Cytochrome P450 3A4): > 10 µM; solubility thermodynamic at 10000 µM [4]: 17 µM (≈ 10.1 µg/mL); INH (Cytochrome P450 1A2): > 10 µM; INH (Cytochrome P450 2D6): > 10 µM; half-life [5]: > 180 min; INH (Cytochrome P450 2C8): > 10 µM; half-life [6]: 150 min
–	140	147	CC(C)(C)NS(=O)(=O)c1ccc(-c2sc(C(=O)NCC3CS(=O)(=O)C3)nc2CC2CCCCC2)c2ccccc12	–
–	138	116	CC(C)(O)CNC(=O)c1nc(CC2CCCCC2)c(-c2ccc(S(=O)(=O)NC(C)(C)C)c3ccccc23)s1	–
–	–	–	CC(C)(O)CNC(=O)c1nc(CC2CCCCC2)c(-c2cnc(S(=O)(=O)NC(C)(C)C)c3ccccc23)s1	INH (Cytochrome P450 2C19): 7.6 µM; INH (Cytochrome P450 2C9): 1.1 µM; INH (Cytochrome P450 3A4): > 10 µM; solubility thermodynamic at 10000 µM [4]: < 4 µM; INH (Cytochrome P450 1A2): > 10 µM; INH (Cytochrome P450 2D6): > 10 µM; half-life [5]: 23 min; INH (Cytochrome P450 2C8): > 10 µM; half-life [6]: 5.2 min
–	56	106	C[C@H](NS(=O)(=O)c1ccc(-c2sc(C(=O)N3CC4(C3)CS(=O)(=O)C4)nc2CC2CCC2)c(Cl)c1Cl)C(F)(F)F	–
–	15	53	CC(C)(CCO)NS(=O)(=O)c1ccc(-c2sc(C(=O)N[C@H]3C[C@H](C(=O)O)C3)nc2CC2CCCCC2)c2ccccc12	–
–	71	80	C[C@H](NS(=O)(=O)c1ccc(-c2sc(C(=O)NCC(C)(C)O)nc2CC2CC(F)(F)C2)c2ccccc12)C(F)(F)F	–
–	–	–	CC(C)(O)CNC(=O)c1nc(CC2CCCCC2)c(-c2ccc(S(=O)(=O)NC(C)(C)C)c(Cl)c2C(F)F)s1	INH (Cytochrome P450 2C19): 5.6 µM; INH (Cytochrome P450 2C9): 0.4 µM; INH (Cytochrome P450 3A4): 6.9 µM; INH (Cytochrome P450 1A2): > 10 µM; INH (Cytochrome P450 2D6): > 10 µM; half-life [5]: 18 min; INH (Cytochrome P450 2C8): 4.6 µM; half-life [6]: 14 min
–	116	158	CCC(C)(C)NS(=O)(=O)c1ccc(-c2sc(C(=O)N[C@H]3C[C@H](C(=O)O)C3)nc2CC2CCCCC2)c2ccccc12	–
94	26	–	CCS(=O)(=O)c1ccc(CNC(=O)c2nc(CC3CCCCC3)c(-c3ccc(S(=O)(=O)NC(C)(C)C)c4ccccc34)s2)cc1	–
–	110	142	CC(C)(C)NS(=O)(=O)c1ccc(-c2sc(C(=O)NCC(C)(C)C(N)=O)nc2CC2CCCCC2)c2ccccc12	–
187	181	–	CC(C)(C)NS(=O)(=O)c1ccc(-c2sc(C(=O)NC3CS(=O)(=O)C3)nc2CC2CCCCC2)c2ccccc12	–
167	155	–	CC(C)(O)CNC(=O)c1nc(CC2CCCCC2)c(-c2ccc(S(=O)(=O)NC3(C#N)CC3)c3ccccc23)s1	INH (Cytochrome P450 2C19): 6.3 µM; INH (Cytochrome P450 2C9): 0.7 µM; INH (Cytochrome P450 3A4): 0.9 µM; solubility thermodynamic at 10000 µM [4]: 10 µM (≈ 5.67 µg/mL); INH (Cytochrome P450 1A2): > 10 µM; INH (Cytochrome P450 2D6): > 10 µM; half-life [5]: 27 min; INH (Cytochrome P450 2C8): 7.3 µM; half-life [6]: 15 min
–	41	89	CC(C)(C)c1cc(-c2sc(C(=O)N[C@H]3C[C@H](C(=O)O)C3)nc2CC2CCCCC2)cc(C(O)(C(F)(F)F)C(F)(F)F)c1	–
–	3.1	7.5	C[C@H](NC(=O)c1cc(-c2sc(C(=O)N[C@H]3C[C@H](C(=O)O)C3)nc2CC2CCCCC2)cc(C2(C#N)CC2)c1)C(F)(F)F	–
–	157	159	C[C@H](NS(=O)(=O)c1cc(-c2sc(C(=O)N[C@H]3C[C@H](C(=O)O)C3)nc2CC2CCCCC2)cc(C(C)(C)C)c1)C(F)(F)F	–
23	16	–	CC(C)(C)NS(=O)(=O)c1ccc(-c2sc(C(=O)N[C@H]3C[C@H](C(=O)O)C3)nc2CC2CCCCC2)c(Cl)c1Cl	–
–	91	117	CC(C)(CCF)NS(=O)(=O)c1ccc(-c2sc(C(=O)N[C@H]3C[C@H](C(=O)O)C3)nc2CC2CCCCC2)c2ccccc12	–
–	32	71	CC[C@H](NC(=O)c1cc(-c2sc(C(=O)N[C@H]3C[C@H](C(=O)O)C3)nc2CC2CCCCC2)cc(C2(C)CC2)c1)C(F)(F)F	–
–	61	117	C[C@H](NS(=O)(=O)c1ccc(-c2sc(C(=O)NCC(C)(C)O)nc2COC(C)(C)C)c(Cl)c1Cl)C(F)(F)F	INH (Cytochrome P450 2C19): 6.5 µM; INH (Cytochrome P450 2C9): 1.7 µM; INH (Cytochrome P450 3A4): > 10 µM; solubility thermodynamic at 10000 µM [4]: 12 µM (≈ 7.28 µg/mL); INH (Cytochrome P450 2D6): > 10 µM; half-life [5]: > 180 min; INH (Cytochrome P450 2C8): > 10 µM; half-life [6]: > 180 min
20	10	–	CC(C)(C)NS(=O)(=O)c1ccc(-c2sc(C(=O)N[C@H]3C[C@H](C(=O)O)C3)nc2CC2CCCCC2)c2c1CCCC2	INH (Cytochrome P450 2C19): > 10 µM; INH (Cytochrome P450 2C9): > 10 µM; INH (Cytochrome P450 3A4): > 10 µM; solubility thermodynamic at 10000 µM [4]: < 1 µM; INH (Cytochrome P450 1A2): > 10 µM; INH (Cytochrome P450 2D6): > 10 µM; half-life [5]: 16 min; INH (Cytochrome P450 2C8): 4.2 µM; half-life [6]: 22 min
–	40	118	C[C@H](NS(=O)(=O)c1ccc(-c2sc(C(=O)N[C@H]3C[C@H](C(=O)O)C3)nc2CC2CCC2)c2ccccc12)C(F)(F)F	–
53	11	–	CC(C)(C)NC(=O)c1cc(-c2sc(C(=O)N[C@H]3C[C@H](C(=O)O)C3)nc2CC2CCCCC2)cc(C2(C)CC2)c1	–
–	66	112	CC(C)(C)NS(=O)(=O)c1ccc(-c2sc(C(=O)NC3CCS(=O)(=O)CC3)nc2C(C)(C)C)c2ccccc12	–
–	29	59	C[C@H](NC(=O)c1cc(-c2sc(C(=O)N[C@H]3C[C@H](C(=O)O)C3)nc2CC2CCCCC2)cc(C(C)(C)C)c1)C(F)(F)F	–
